# Key:
# [1] = tested on: chronic, non-healing wounds; experiment: Veterinary case studies 1 to 7, non-healing wounds in dogs; type: in vivo, Canis lupus familiaris
# Experimental: Seven dogs (Canis lupus familiaris) and one tree kangaroo (Dendrolagus humholzii) with chronic, non-healing wounds that were unresponsive to current veterinary standards-of-care for these indications were treated with Compound 1 by independent veterinarians. A second tree kangaroo and a spectacled flying fox (Pteropus conspicillatus) with wounds unsuited for initial treatment with current standards-of-care were also treated with Compound 1. All cases were managed as open wounds without the use of dressings or other bandaging during the course of treatment with Compound 1 and the subsequent period of wound resolution. Unless stated in individual case studies, no concomitant medications were used over the course of treatments with Compound 1.
# Case notes: • Frail patient with severe osteoarthritis, considered a high anaesthetic risk for any surgical intervention. • Patient had persistent infected cyst on the back proximal to the tail that had not responded to regular draining and injection of the cyst with antibiotics (gentamycin, enrofloxacin, norocillin) over a 5 month period. • Patient presented with the burst cyst and elevated temperature. The cyst was cleaned to remove dead skin and then flushed with saline and chlorhexidene.
# The wound area was fully healed by 63 days after treatment. • The wound on leg also responded quickly with eschar present in localised areas. By 14 days the eschar had largely shed and healthy underlying granulation tissue was observed.
# Case notes: • Patient presented with a non-healing laceration due to a hunting accident that had been present on the left ear for more than 6 weeks. • Three treatments, each of 0.1 mL of 5 mg/mL gel formulation of Compound 1, were applied to the affected area at 8 day intervals. No concomitant medications were used during the course of treatment of the patient with Compound 1. • By 41 days after the first treatment with Compound 1 the wound had fully closed.
# Case notes: • The patient presented with non-healing (infected and inflamed) sore on upper part of left ear and was treated for 10 weeks with standard-of-care protocols involving regular application of (i) a topical dermatological formulation (Neotopic) combining antibacterial (neomycin sulphate), anti-inflammatory (hydrocortisone) and anti-pruritic (lignocaine) agents, and (b) a commercial suspension (Auracol) with anti-inflammatory (prednisolone), antifungal (miconazole nitrate) and antibacterial (polymixin B sulphate) components. Prior to these treatments the patient was on an on-going course of low dose oral corticosteroids (macrolone) for treatment of chronic canine atopic dermatitis syndrome. • After 10 weeks of the standard-of-care protocol there was no sign of wound resolution. • A single treatment of 3 mL of a 5 mg/mL gel formulation of Compound 1 was applied to the affected area and within 15 minutes of application of Compound 1 there was discernable reddening of the treated area. • From 4 days after treatment with Compound 1 the patient recommenced low dose daily corticosteroids (macrolone) for treatment of the severe atopic dermatitis.
# Case notes: • The patient presented with two non-healing wounds at the tip and base of the right ear and a non-healing wound on the snout that owner had observed present for more than 4 weeks. Possible origin was infected spider or other insect bites. • Two treatments, each of 0.1 mL of 5 mg/mL gel formulation of Compound 1, were applied to both affected areas on the ears at a 5 day interval.
# [2] = tested on: wounds following necrosis and sloughing of spontaneous tumours; experiment: Resolution of wounds after sloughing of spontaneous tumours treated by intratumoural injection, canine; type: in vivo; details: for Average days from tumour slough to wound closure: Canine
# Experimental: necrosis and sloughing of spontaneous tumours that had been treated by intratumoural injection of Compound 1 (30% 1,2 propanediol formulation at either 0.5 or 1.0 mg/mL concentration) in twenty-four companion animals are summarised in Table 17.
# Note that all wounds were managed as open wounds and no bandaging, dressings, lotions or concomitant medications were used in any of these cases.
# [3] = Case 1, 76 days following the final treatment
# [4] = Case 5, 152 days after the initial treatment
# [5] = Case 6, 83 days after treatment
structure (smiles),measurement,setting,value
"CC=C(C)C(=O)OC1C(C)C2(O)C(C3OC3(CO)C(O)C3(O)C(=O)C(C)=CC32)C2C(C)(C)C12OC(=O)C(C)CC (centres unmarked) [Compound 1, 12-tigloyl-13-(2-methylbutanoyl)-6,7-epoxy-4,5,9,12,13,20-hexahydroxy-1-tigliaen-3-one]",wound status,"[1]; Case 1, Bernese Mountain Dog, facial wound, gel 3 mg/mL x5, then 1 mL 0.5 mg/mL injected, 35 days following injection",infilled with healthy differentiating granulation tissue
same,"hair regrowth, % of the original wound area",[1]; [3],greater than 95%
same,wound outcome,[1]; [3],healed and was infilled with normal tissue minimal scarring
same,wound area as % of the area of the original wound,"[1]; Case 2, Boxer, burst infected cyst, 0.5 mL gel 3 mg/mL, 5 days post treatment",less than 30%
same,hair regrowth over the original wound area,"[1]; Case 2, 30 days",greater than 70%
same,wound outcome,"[1]; Case 2, 30 days",resolved with normal tissue
same,wound size as % of original size,"[1]; Case 3, Chow Chow, two bite wounds, 0.4 mL gel 3 mg/mL each, 15 days post treatment",less than 40%
same,wound outcome,"[1]; Case 3, 46 days following treatment","completely resolved with normal tissue, no scarring and complete hair regrowth"
same,"time to complete wound closure, facial wound","[1]; Case 4, Boxer, single 0.4 mL gel 5 mg/mL",≤ 14 days
same,"hair cover, leg wound","[1]; Case 4, 63 days after treatment",greater than 95%
same,"time to fully healed wound area, facial wound","[1]; Case 4, single 0.4 mL gel 5 mg/mL",≤ 63 days
same,"wound outcome, leg wound","[1]; Case 4, single 0.6 mL gel 5 mg/mL, 63 days after treatment",completely closed
same,time to full wound closure,"[1]; Case 5, Bull Arab, ear laceration, 3 x 0.1 mL gel 5 mg/mL at 8 day intervals, after first treatment",≤ 41 days
same,hair coverage over the original wound site,[1]; [4],greater than 80%
same,wound outcome,[1]; [4],"complete wound resolution, minimal scarring"
same,time to discernable reddening of the treated area,"[1]; Case 6, Boxer, ear wound, single 3 mL gel 5 mg/mL",≤ 15 min
same,wound status,"[1]; Case 6, 17 days after treatment",no sign of infection or inflammation
same,"hair regrowth, % of the original wound area",[1]; [5],more than 90%
same,wound outcome,[1]; [5],complete wound closure
same,scarring,"[1]; Case 6, 139 days after treatment",no evidence of scarring
same,"wound status, ear wounds","[1]; Case 7, Jack Russell Terrier, 2 x 0.1 mL gel 5 mg/mL, 13 days after the first treatment",contracted significantly and had formed eschars
same,"time to full wound closure, ear wounds","[1]; Case 7, 2 x 0.1 mL gel 5 mg/mL",≤ 29 days
same,"wound outcome, snout wound","[1]; Case 7, single 0.1 mL gel 5 mg/mL, 16 days after treatment",fully resolved
same,"No. of dogs: Tissue deficit at wound site, Minor",[2]; 5 to 10% tissue deficit across the original wound area,0
same,"No. of dogs: Tissue deficit at wound site, Nil or minimal",[2]; <5% tissue deficit across the original wound area,15
same,"No. of dogs: Tissue deficit at wound site, Substantial",[2]; >10% tissue deficit across the original wound area,0
same,Average days from tumour slough to wound closure,"[2]; wound size class 0.25 to 9 cm^2, 7 cases",24 ± 16 days
same,Average days from tumour slough to wound closure,"[2]; wound size class 9 to 50 cm^2, 5 cases",40 ± 15 days
same,Average days from tumour slough to wound closure,"[2]; wound size class >50 to 130 cm^2, 3 cases",62 ± 18 days
same,"No. of dogs: Hair regrowth on wound area, Sparse",[2]; Hair covers <50% of original wound area,7
same,"No. of dogs: Hair regrowth on wound area, Partial",[2]; Hair covers >50% of original wound area,1
same,"No. of dogs: Hair regrowth on wound area, Full",[2]; Hair covers >95% of original wound area,12
same,"No. of dogs: Scarring & skin thickening, Minor",[2]; Localised scar covering <10% of original wound area,1
same,"No. of dogs: Scarring & skin thickening, Substantial",[2]; Scarring covering >10% of original wound area,1
same,"No. of dogs: Scarring & skin thickening, Nil or minimal",[2]; Scarring not obvious visually or by touch,13
same,"No. of dogs: Change in hair colour, No",[2]; healed wound site,15
same,"No. of dogs: Change in hair colour, Yes",[2]; healed wound site,0
same,"No. of dogs: Skin pigmentation, Hyperpigmentation",[2]; healed wound site,0
same,"No. of dogs: Skin pigmentation, Hypopigmentation",[2]; healed wound site,3
same,"No. of dogs: Skin pigmentation, Normal",[2]; healed wound site,11
same,"No. of dogs: Skin pigmentation, Patchy",[2]; healed wound site,1

# — US10822317B2, “Methods and compositions for wound healing” (QBiotics Limited, priority 2013, dated 2020)
